Patent US12077503B2, “Substituted cyclic amides and their use as herbicides” (FMC CORPORATION, priority 2015, dated 2024)

Legend:
Assay type in all cases: in vivo
[1] = tested on: barnyardgrass (Echinochloa crus-galli); assay: Test A postemergence; conditions: Echinochloa crus-galli, post-emergence, 240 h, postemergence
In short: (§1)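 Greenhouse, ~10 d after spray; visual injury vs untreated controls, 0 = no effect, 100 = complete control. Preemergence: directed soil spray over planted seeds. Postemergence: plants 2–10 cm, 1–2 leaf stage. Loam/sand blend. Compound in non-phytotoxic solvent with surfactant.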

corn (Zea mays) = assay: Test A postemergence; conditions: Zea mays, post-emergence, 240 h, postemergence
In short: as §1

[2] = tested on: ragweed (common ragweed, Ambrosia elatior); assay: Test A postemergence; conditions: Ambrosia artemisiifolia, post-emergence, 240 h, postemergence
In short: as §1

[3] = tested on: giant foxtail (Setaria faberii); assay: Test A postemergence; conditions: Setaria faberi, post-emergence, 240 h, postemergence
In short: as §1

[4] = tested on: wheat (Triticum aestivum); assay: Test A postemergence; conditions: Triticum aestivum, post-emergence, 240 h, postemergence
In short: as §1

[5] = tested on: blackgrass (Alopecurus myosuroides); assay: Test A postemergence; conditions: Alopecurus myosuroides, post-emergence, 240 h, postemergence
In short: as §1

[6] = tested on: Galium (catchweed bedstraw, Galium aparine); assay: Test A postemergence; conditions: Galium, post-emergence, 240 h, postemergence
In short: as §1

Kochia (Kochia scoparia) [7] = assay: Test A postemergence; conditions: Bassia scoparia, post-emergence, 240 h, postemergence
In short: as §1

[8] = tested on: ryegrass, Italian (Italian ryegrass, Lolium multiflorum); assay: Test A postemergence; conditions: Lolium multiflorum, post-emergence, 240 h, postemergence
In short: as §1

[9] = tested on: barnyardgrass (Echinochloa crus-galli); assay: Test A preemergence; conditions: Echinochloa crus-galli, pre-emergence, 240 h, preemergence, 0 to 100 scale where 0 is no effect and 100 is complete control, read-out: Barnyardgrass plant response rating
In short: as §1

[10] = tested on: pigweed (Amaranthus retroflexus); assay: Test A preemergence; conditions: Amaranthus retroflexus, pre-emergence, 240 h, preemergence, 0 to 100 scale where 0 is no effect and 100 is complete control, read-out: Pigweed plant response rating
[11] = tested on: ragweed (common ragweed, Ambrosia elatior); assay: Test A preemergence; conditions: Ambrosia artemisiifolia, pre-emergence, 240 h, preemergence, 0 to 100 scale where 0 is no effect and 100 is complete control, read-out: Ragweed plant response rating
In short: as §1

[12] = tested on: giant foxtail (Setaria faberii); assay: Test A preemergence; conditions: Setaria faberi, pre-emergence, 240 h, preemergence, 0 to 100 scale where 0 is no effect and 100 is complete control, read-out: Foxtail, Giant plant response rating
In short: as §1

Kochia (Kochia scoparia) [13] = assay: Test A preemergence; conditions: Bassia scoparia, pre-emergence, 240 h, preemergence, 0 to 100 scale where 0 is no effect and 100 is complete control, read-out: Kochia plant response rating
In short: as §1

[14] = tested on: ryegrass, Italian (Italian ryegrass, Lolium multiflorum); assay: Test A preemergence; conditions: Lolium multiflorum, pre-emergence, 240 h, preemergence, 0 to 100 scale where 0 is no effect and 100 is complete control, read-out: Ryegrass, Italian plant response rating
In short: as §1

Cc1nc([C@H]2CNC(=O)[C@@H]2C(=O)Nc2cccc(F)c2F)cs1 [Compound 1180]
pest or weed control at 125 g/ha ([1]; 125 g ai/ha, visual injury vs untreated controls after approx. 10 d, 0 = no effect, 100 = complete control, read-out: Barnyardgrass plant response rating (0 to 100 scale)): 0%
pest or weed control at 500 g/ha ([1]; 500 g ai/ha, 0 to 100 scale, 0 is no effect, 100 is complete control, read-out: Barnyardgrass plant response rating): 0%
plant injury at 125 g/ha (corn (Zea mays); 125 g ai/ha, visual injury vs untreated controls after approx. 10 d, 0 = no effect, 100 = complete control, read-out: Corn plant response rating (0 to 100 scale)): 0%
plant injury at 500 g/ha (corn (Zea mays); 500 g ai/ha, 0 to 100 scale, 0 is no effect, 100 is complete control, read-out: Corn plant response rating): 0%
pest or weed control at 125 g/ha ([2]; 125 g ai/ha, visual injury vs untreated controls after approx. 10 d, 0 = no effect, 100 = complete control, read-out: Ragweed plant response rating (0 to 100 scale)): 0%
pest or weed control at 500 g/ha ([2]; 500 g ai/ha, 0 to 100 scale, 0 is no effect, 100 is complete control, read-out: Ragweed plant response rating): 0%
pest or weed control at 125 g/ha ([3]; 125 g ai/ha, visual injury vs untreated controls after approx. 10 d, 0 = no effect, 100 = complete control, read-out: Foxtail, Giant plant response rating (0 to 100 scale)): 0%
pest or weed control at 500 g/ha ([3]; 500 g ai/ha, 0 to 100 scale, 0 is no effect, 100 is complete control, read-out: Foxtail, Giant plant response rating): 0%
plant injury at 125 g/ha ([4]; 125 g ai/ha, visual injury vs untreated controls after approx. 10 d, 0 = no effect, 100 = complete control, read-out: Wheat plant response rating (0 to 100 scale)): 0%
plant injury at 500 g/ha ([4]; 500 g ai/ha, 0 to 100 scale, 0 is no effect, 100 is complete control, read-out: Wheat plant response rating): 0%
pest or weed control at 125 g/ha ([5]; 125 g ai/ha, visual injury vs untreated controls after approx. 10 d, 0 = no effect, 100 = complete control, read-out: Blackgrass plant response rating (0 to 100 scale)): 0%
pest or weed control at 500 g/ha ([5]; 500 g ai/ha, 0 to 100 scale, 0 is no effect, 100 is complete control, read-out: Blackgrass plant response rating): 0%
pest or weed control at 125 g/ha ([6]; 125 g ai/ha, visual injury vs untreated controls after approx. 10 d, 0 = no effect, 100 = complete control, read-out: Galium plant response rating (0 to 100 scale)): 0%
pest or weed control at 500 g/ha ([6]; 500 g ai/ha, 0 to 100 scale, 0 is no effect, 100 is complete control, read-out: Galium plant response rating): 0%
pest or weed control at 125 g/ha (Kochia (Kochia scoparia) [7]; 125 g ai/ha, visual injury vs untreated controls after approx. 10 d, 0 = no effect, 100 = complete control, read-out: Kochia plant response rating (0 to 100 scale)): 0%
pest or weed control at 500 g/ha (Kochia (Kochia scoparia) [7]; 500 g ai/ha, 0 to 100 scale, 0 is no effect, 100 is complete control, read-out: Kochia plant response rating): 0%
pest or weed control at 125 g/ha ([8]; 125 g ai/ha, visual injury vs untreated controls after approx. 10 d, 0 = no effect, 100 = complete control, read-out: Ryegrass, Italian plant response rating (0 to 100 scale)): 0%
pest or weed control at 500 g/ha ([8]; 500 g ai/ha, 0 to 100 scale, 0 is no effect, 100 is complete control, read-out: Ryegrass, Italian plant response rating): 0%
pest or weed control at 125 g/ha ([9]; 125 g ai/ha, approx. 10 d): 20%
pest or weed control at 500 g/ha ([9]; 500 g ai/ha): 70%
pest or weed control at 125 g/ha ([10]; 125 g ai/ha, approx. 10 d): 0%
pest or weed control at 500 g/ha ([10]; 500 g ai/ha): 0%
pest or weed control at 125 g/ha ([11]; 125 g ai/ha, approx. 10 d): 0%
pest or weed control at 500 g/ha ([11]; 500 g ai/ha): 0%
pest or weed control at 125 g/ha ([12]; 125 g ai/ha, approx. 10 d): 0%
pest or weed control at 500 g/ha ([12]; 500 g ai/ha): 50%
pest or weed control at 125 g/ha (Kochia (Kochia scoparia) [13]; 125 g ai/ha, approx. 10 d): 0%
pest or weed control at 500 g/ha (Kochia (Kochia scoparia) [13]; 500 g ai/ha): 30%
pest or weed control at 125 g/ha ([14]; 125 g ai/ha, approx. 10 d): 0%
pest or weed control at 500 g/ha ([14]; 500 g ai/ha): 0%
